Laboratory results published in patent publication US20060069132A1, “Azolecarboxamide herbicides” (priority 2004, published 2006).

How the values were obtained:
[1] = test system: pigweed; test: Test B pre-/postemergence herbicide test; format: in vivo, Amaranthus retroflexus; conditions: for Pigweed plant response rating: postemergence, scale 0 (no effect) to 100 (complete control)
Procedure, shortened: (§1)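 Pre: seeds sown, then sprayed. Post: 1–4-leaf plants (2–18 cm) sprayed at the same time. Paddy: flooded, treated at 2-leaf stage. Formulation: non-phytotoxic solvent with surfactant. Greenhouse 13–15 days; visual 0–100 score relative to controls.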

[2] = test system: barnyardgrass; test: Test B pre-/postemergence herbicide test; format: in vivo, Echinochloa crus-galli; conditions: for Barnyardgrass plant response rating: postemergence, scale 0 (no effect) to 100 (complete control)
Procedure, shortened: (§2)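 Visual rating, 0 (no effect) to 100 (complete control), versus untreated controls after 13–15 d in greenhouse. Pre- and postemergence applications (postemergence plants 2–18 cm, 1–4 leaves); flooded paddy arm at 2-leaf stage. Compounds in non-phytotoxic solvent plus surfactant.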

[3] = test system: cocklebur; test: Test B pre-/postemergence herbicide test; format: in vivo, Xanthium strumarium; conditions: for Cocklebur plant response rating: postemergence, scale 0 (no effect) to 100 (complete control)
Procedure, shortened: as §2

[4] = test system: large crabgrass; test: Test B pre-/postemergence herbicide test; format: in vivo, Digitaria sanguinalis; conditions: for Crabgrass, Large plant response rating: postemergence, scale 0 (no effect) to 100 (complete control)
Procedure, shortened: as §1

[5] = test system: barnyardgrass; test: Test B flooded paddy test; format: in vivo, Echinochloa crus-galli; conditions: 1000 g ai/ha, visual rating, scale 0 to 100 (0 no effect, 100 complete control), 13 to 15 days
Procedure, shortened: (§3)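 Visual ratings, 0 (no effect) to 100 (complete control), made versus controls after 13–15 d greenhouse. Paddy plants treated at 2-leaf stage; postemergence plants at 1- to 4-leaf stage, 2–18 cm tall.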

[6] = test system: ducksalad; test: Test C flooded paddy test; format: in vivo, Heteranthera limosa
[7] = test system: rice; test: Test B pre-/postemergence herbicide test; format: in vivo, Oryza sativa; conditions: 0 = no effect, 100 = complete control, preemergence
Procedure, shortened: as §1

[8] = test system: blackgrass; test: Test B postemergence herbicide test; format: in vivo, Alopecurus myosuroides; conditions: postemergence, visual rating, scale 0 (no effect) to 100 (complete control)
Procedure, shortened: as §3

[9] = test system: wild oat; test: Test B postemergence herbicide test; format: in vivo, Avena fatua; conditions: postemergence, visual rating, scale 0 (no effect) to 100 (complete control)
Procedure, shortened: (§4)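 Plants grow to 1- to 4-leaf stage (2–18 cm) for postemergence spraying, or to 2-leaf stage for the paddy test. Formulated compound is applied. Greenhouse holding lasts 13–15 days. Response is scored visually relative to controls, 0 no effect to 100 complete control; a dash means no result.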

[10] = test system: small flower umbrella sedge; test: Test B flooded paddy test; format: in vivo, Cyperus difformis; conditions: 1000 g ai/ha, visual rating, scale 0 to 100 (0 no effect, 100 complete control), 13 to 15 days
Procedure, shortened: as §3

[11] = test system: ducksalad; test: Test B flooded paddy test; format: in vivo, Heteranthera limosa; conditions: 1000 g ai/ha, visual rating, scale 0 to 100 (0 no effect, 100 complete control), 13 to 15 days
Procedure, shortened: as §3

[12] = test system: rice; test: Test C flooded paddy test; format: in vivo, Oryza sativa
Procedure, shortened: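 Postemergence sprays applied to plants 2 to 18 cm tall (1- to 4-leaf stage); paddy species grown to 2-leaf stage under flooding. After 12 to 14 days in greenhouse, visual rating versus untreated controls on 0–100 scale (0 no effect, 100 complete control).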

[13] = test system: lambsquarters; test: Test B pre-/postemergence herbicide test; format: in vivo, Chenopodium album; conditions: for Lambsquarters plant response rating: postemergence, scale 0 (no effect) to 100 (complete control)
Procedure, shortened: as §1

[14] = test system: giant foxtail; test: Test B pre-/postemergence herbicide test; format: in vivo, Setaria faberi; conditions: for Foxtail, Giant plant response rating: postemergence, scale 0 (no effect) to 100 (complete control)
Procedure, shortened: as §1

[15] = test system: smallflower umbrella sedge; test: Test C flooded paddy test; format: in vivo, Cyperus difformis
[16] = test system: morningglory; test: Test B pre-/postemergence herbicide test; format: in vivo, Ipomoea coccinea; conditions: for Morningglory plant response rating: postemergence, visual rating, scale 0 (no effect) to 100 (complete control)
Procedure, shortened: as §2

[17] = test system: Surinam grass; test: Test B pre-/postemergence herbicide test; format: in vivo, Urochloa decumbens; conditions: for Surinam Grass plant response rating: postemergence, scale 0 (no effect) to 100 (complete control)
Procedure, shortened: as §1

[18] = test system: corn; test: Test B pre-/postemergence herbicide test; format: in vivo, Zea mays; conditions: for Corn plant response rating: postemergence, scale 0 (no effect) to 100 (complete control)
Procedure, shortened: as §1

[19] = test system: rice; test: Test B flooded paddy test; format: in vivo, Oryza sativa; conditions: 1000 g ai/ha, visual rating, scale 0 to 100 (0 no effect, 100 complete control), 13 to 15 days
Procedure, shortened: as §4

[20] = test system: wheat; test: Test B postemergence herbicide test; format: in vivo, Triticum aestivum; design: key to Wheat plant response rating: 0 = no effect, 100 = complete control; conditions: postemergence, visual rating, scale 0 (no effect) to 100 (complete control)
Procedure, shortened: as §4

[21] = test system: barnyardgrass; test: Test C flooded paddy test; format: in vivo, Echinochloa crus-galli
Procedure, shortened: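 Visual rating, 0 (no effect) to 100 (complete control), vs. controls at 12–14 d in greenhouse. Postemergence: 1–4-leaf plants, 2–18 cm. Paddy: flooded, barnyardgrass at 2-leaf stage.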

[22] = test system: velvetleaf; test: Test B pre-/postemergence herbicide test; format: in vivo, Abutilon theophrasti; conditions: for Velvetleaf plant response rating: postemergence, scale 0 (no effect) to 100 (complete control)
Procedure, shortened: as §1

[23] = 125 g ai/ha, 0 = no effect, 100 = complete control, preemergence
[24] = 500 g ai/ha, visual rating, 0 = no effect, 100 = complete control, preemergence
[25] = 125 g ai/ha, scale 0 to 100 (0 no effect, 100 complete control)
[26] = 250 g ai/ha, scale of 0 to 100, 0 is no effect, 100 is complete control
[27] = 500 g ai/ha, visual rating after 12 to 14 days, scale 0 to 100 (0 no effect, 100 complete control)
[28] = 62 g ai/ha, scale 0 to 100 (0 no effect, 100 complete control)

SMILES: CCNC(=O)c1cccc(NC(=O)c2nn(C(C)(C)C)cc2Cl)c1 [Compound 219]
- Pigweed plant response rating (0 to 100 scale) [1, 23]: 0
- Plant response rating, Pigweed [1, 24]: 80
- Pigweed plant response rating ([1]; 125 g ai/ha, visual rating): 10
- Pigweed plant response rating ([1]; 500 g ai/ha, visual rating): 20
- Barnyardgrass plant response rating (0 to 100 scale) [2, 23]: 0
- Plant response rating, Barnyardgrass [2, 24]: 20
- Barnyardgrass plant response rating ([2]; 125 g ai/ha, visual rating): 0
- Barnyardgrass plant response rating ([2]; 500 g ai/ha, visual rating): 0
- Cocklebur plant response rating (0 to 100 scale) [3, 23]: 0
- Plant response rating, Cocklebur [3, 24]: 0
- Cocklebur plant response rating ([3]; 125 g ai/ha, visual rating): 0
- Cocklebur plant response rating ([3]; 500 g ai/ha, visual rating): 20
- Crabgrass, Large plant response rating (0 to 100 scale) [4, 23]: 0
- Plant response rating, Crabgrass, Large [4, 24]: 100
- Crabgrass, Large plant response rating ([4]; 125 g ai/ha, visual rating): 0
- Crabgrass, Large plant response rating ([4]; 500 g ai/ha, visual rating): 10
- Barnyardgrass plant response rating [5]: 0
- Ducksalad plant response rating [6, 25]: 0
- Ducksalad plant response rating [6, 26]: 0
- Plant response rating, Ducksalad [6, 27]: 0
- Rice plant response rating (0 to 100 scale) ([7]; 125 g ai/ha): 0
- Plant response rating, Rice ([7]; 500 g ai/ha, visual rating): 0
- Blackgrass plant response rating ([8]; 125 g ai/ha): 0
- Blackgrass plant response rating ([8]; 500 g ai/ha): 0
- Oat, Wild plant response rating ([9]; 125 g ai/ha): 0
- Oat, Wild plant response rating ([9]; 500 g ai/ha): 0
- Sedge, Umbrella plant response rating [10]: 80
- Ducksalad plant response rating [11]: 80
- Rice plant response rating [12, 28]: 0
- Rice plant response rating [12, 25]: 0
- Rice plant response rating [12, 26]: 0
- Plant response rating, Rice [12, 27]: 0
- Lambsquarters plant response rating (0 to 100 scale) [13, 23]: 0
- Plant response rating, Lambsquarters [13, 24]: 0
- Lambsquarters plant response rating ([13]; 125 g ai/ha, visual rating): 0
- Lambsquarters plant response rating ([13]; 500 g ai/ha, visual rating): 10
- Foxtail, Giant plant response rating (0 to 100 scale) [14, 23]: 0
- Plant response rating, Foxtail, Giant [14, 24]: 0
- Foxtail, Giant plant response rating ([14]; 125 g ai/ha, visual rating): 0
- Foxtail, Giant plant response rating ([14]; 500 g ai/ha, visual rating): 10
- Sedge, Umbrella plant response rating [15, 28]: 0
- Sedge, Umbrella plant response rating [15, 25]: 0
- Sedge, Umbrella plant response rating [15, 26]: 0
- Plant response rating, Sedge, Umbrella [15, 27]: 20
- Morningglory plant response rating (0 to 100 scale) [16, 23]: 0
- Morningglory plant response rating ([16]; 125 g ai/ha): 0
- Morningglory plant response rating ([16]; 500 g ai/ha): 60
- Surinam Grass plant response rating (0 to 100 scale) [17, 23]: 0
- Plant response rating, Surinam Grass [17, 24]: 0
- Surinam Grass plant response rating ([17]; 125 g ai/ha, visual rating): 0
- Surinam Grass plant response rating ([17]; 500 g ai/ha, visual rating): 10
- Corn plant response rating (0 to 100 scale) [18, 23]: 0
- Plant response rating, Corn [18, 24]: 0
- Corn plant response rating ([18]; 125 g ai/ha, visual rating): 0
- Corn plant response rating ([18]; 500 g ai/ha, visual rating): 10
- Rice plant response rating [19]: 0
- Wheat plant response rating ([20]; 125 g ai/ha): 0
- Wheat plant response rating ([20]; 500 g ai/ha): 0
- Barnyardgrass plant response rating [21, 28]: 0
- Barnyardgrass plant response rating [21, 25]: 0
- Barnyardgrass plant response rating [21, 26]: 0
- Plant response rating, Barnyardgrass [21, 27]: 0
- Velvetleaf plant response rating (0 to 100 scale) [22, 23]: 0
- Plant response rating, Velvetleaf [22, 24]: 10
- Velvetleaf plant response rating ([22]; 125 g ai/ha, visual rating): 0
- Velvetleaf plant response rating ([22]; 500 g ai/ha, visual rating): 10
